{
  "source": "patent US6660255B1",
  "about": "“Inhibition of gene transcription by polyamide DNA-binding ligands” (California Institute of Technology, priority 1997, dated 2003)",
  "key": {"[1]": {"tested_on": "5′-AGTACT-3′ site adjacent to the LEF-1 binding site", "experiment": "DNase footprint titration on HIV-1 enhancer/promoter fragment", "conditions": "mismatch polyamide", "protocol": "(§1) White, S., Baird, E. E. & Dervan, P. B. describes the pairing rules for recognition in the minor groove of DNA by pyrrole-imidazole polyamides. […] Labeled DNA was incubated with polyamide (45 minutes) and digested with DNase I under single-hit conditions.\n(§2) Regions of polyamide protection were determined by analysis of the digestion products on a 6% denaturing polyacrylamide sequencing gel. Storage phosphorimage analysis of the data was used to obtain dissociation constants for the binding reactions (using Kodak Storage Phosphor Screens and a Molecular Dynamics SF PhosphorImager). Recombinant human TBP (rhTBP) was obtained from Promega and was used in footprinting and gel mobility shift experiments as recommended. The reaction mixtures also contained 100 ng of poly dG-poly dC per 10 μL gel shift reaction or 50 μL footprinting reaction. For gel mobility shift assays, 6% polyacrylamide gels (20:1, acrylamide to bisacrylamide) contained 44 mM Tris-borate, pH 8.3, 1 mM EDTA, 4 nM MgCl2 and 0.02% (v/v) NP-40. The same buffer was used for electrophoresis of 1 mm thick gels at 15 volts/cm for 2 hours at 4° C."}, "[2]": {"tested_on": "HIV-1 enhancer/promoter restriction fragment", "experiment": "DNase footprint titration on HIV-1 enhancer/promoter fragment, other sites", "assay_type": "binding", "conditions": "mismatch polyamide, 1-60 nM", "description": "White, S., Baird, E. E. & Dervan, P. B. describes the pairing rules for recognition in the minor groove of DNA by pyrrole-imidazole polyamides. Chem. & Biol. 4, 569-578 (1997); Swalley, S. E., Baird, E. E. & Dervan, P. B. describe the sequence specificity of the β/β pairing Chem Eur. J. 3, 1600 (1997). […] For DNase I footprinting a 400-bp restriction fragment containing the HIV-1 enhancer and promoter regions was isolated from pHIV LTR-CAT plasmid DNA (obtained from Dr. K. A. Jones of The Salk Institute, La Jolla, Calif.) (P. L. Sheridan et al., describe the sequence composition of the plasmid pHIV LTR-CAT Genes Dev. 9, 2090 (1995)). Labeled DNA was incubated with polyamide (45 minutes) and digested with DNase I under single-hit conditions.\nas §2, with “For gel mobility shift assays, 6% polyacrylamide gels (20:1, acrylamide to bisacrylamide) contained 44 mM Tris-borate, pH 8.3, 1 mM EDTA, 4 nM MgCl2 and 0.02% (v/v) NP-40. The same buffer was used for electrophoresis of 1 mm thick gels at 15 volts/cm for 2 hours at 4° C.” left out"}, "[3]": {"tested_on": "HIV-1 promoter (LEF-1-activated transcription)", "experiment": "HIV-1 transcription in vitro, H9 cell extract supplemented with HeLa nuclear extract", "assay_type": "biochemical", "conditions": "mismatch polyamide", "description": "Based on the-results described above, it was expected that polyamide inhibition of LEF-1 binding would inhibit LEF-1-dependent transcription in an appropriate in vitro assay system. […] The H9 cell extract was supplemented with the HeLa cell-derived nuclear extract in order to obtain high levels of transcription. The H9 cell extract stimulates HIV-1 transcription ˜2.5 to 3-fold over the level of transcription observed with the HeLa extract alone and immunodepletion of LEF-1 protein from the H9 extract abolishes this activated transcription.\nThe effects of polyamides 1 and 2 on HIV-1 transcription were tested in an in vitro transcription assay with a HeLa cell nuclear extract (FIG. 21A). The effects of the polyamides on basal transcription by RNA polymerase II was monitored with a nuclear extract prepared from HeLa cells (J. D. Dignam, P. L. Martin, B. S. Shastry, R. G. Roeder, Describe eukaryotic gene transcription with purified components Meth. Enzymol. 101, 582 (1983)). […] Whole cell extracts of H9 cells in log phase growth were prepared by hypotonic lysis and contained 20 mg/ml protein, as determined by the Bradford reaction. […]\nThe effects of polyamides 3 and 4 on HIV-1 transcription in an in vitro system consisting of a cell-free extract prepared from cultured human lymphoid H9 cells supplemented with HeLa cell extract were determined. […]"}, "[4]": {"tested_on": "5′-WGCWGCW-3′ sequences adjacent to the HIV-1 TATA element", "experiment": "DNase I footprint titration at sites flanking the HIV-1 TATA element", "assay_type": "binding", "protocol": "The recognition sites for polyamide HIV-1 are of the form 5′-WGCWGCW-3″ (where W=A or T).\nas §1, §2"}},
  "note": "“Also recorded” adds a separate entry of the source.",
  "data": [
    {"smiles": "CN(C)CCCNC(=O)CCNC(=O)c1cc(NC(=O)c2nc(NC(=O)CCNC(=O)c3cc(NC(=O)c4nc(NC(=O)CCCNC(=O)c5cc(NC(=O)c6nc(NC(=O)CCNC(=O)c7cc(NC(=O)c8nccn8C)cn7C)cn6C)cn5C)cn4C)cn3C)cn2C)cn1C", "note": "[polyamide 4, ImPy-β-ImPy-γ-ImPy-β-ImPy-β-Dp]", "values": [
      {"measurement": "fold reduced affinity for the 5′-AGTACT-3′ sequence", "setting": "[1]", "value": "> 100", "unit": "fold"},
      {"measurement": "binding to the HIV-1 enhancer/promoter fragment", "setting": "[2]", "value": "failed to detect any high affinity sites; also recorded: does not bind"},
      {"measurement": "inhibition of HIV-1 transcription", "setting": "[3]", "value": "fails to inhibit"},
      {"measurement": "Ka", "setting": "[4]; HIV-1 TATA box region", "value": "2e+10", "unit": "M⁻¹"},
      {"measurement": "fold reduced affinity relative to the match polyamide", "setting": "[4]; mismatch control polyamide", "value": 100, "unit": "fold"},
      {"measurement": "Kd", "setting": "[4]; sites flanking the TATA element, 5′-AGCTGCA-3′ / 5′-TGCTGCA-3′, read-out: apparent/equilibrium dissociation constant (Kd)", "value": 0.05, "unit": "nM"}
    ]}
  ]
}
